The nature of data set [1]: Peptide hydrophobicity by RP-HPLC retention. Type of data set: physicochemical. The note with it: 80° C., polar face substitution. As to the method: Peptide Synthesis and Purification—Syntheses of the peptides were carried out by solid-phase peptide synthesis using t-butyloxycarbonyl chemistry and MBHA (4-methylbenzhydrylamine) resin (0.97 mmol/g), followed by cleavage of the peptide from the resin as described previously (117-119). However, it is understood in the art that there are other suitable instruments and methods for automated or manual peptide synthesis that could be employed to produce the peptides described herein. Peptide purification was performed by reversed-phase high-performance liquid chromatography (RP-HPLC) on a Zorbax 300 SB-C8 column (250×9.4 mm I.D.; 6.5 μm particle size, 300 Å pore size; Agilent Technologies, Little Falls, Del.) with a linear AB gradient (0.1% acetonitrile/min) at a flow rate of 2 mL/min, where eluent A was 0.2% aqueous trifluoroacetic acid (TFA), pH 2, and eluent B was 0.2% TFA in acetonitrile, where the shallow 0.1% acetonitrile/min gradient started 12% below the acetonitrile concentration required to elute the peptide on injection of analytical sample using a gradient of 1% acetonitrile/min (113). The purity of the peptides was verified by analytical RP-HPLC as described below and further characterized by mass spectrometry and amino acid analysis. Crude and purified peptides were analyzed on an Agilent 1100 series liquid chromatograph. Runs were performed on a Zorbax 300 SB-C8 column (150×2.1 mm I.D.; 5 μm particle size, 300 Å pore size) from Agilent Technologies using a linear AB gradient (1% acetonitrile/min) and a flow rate of 0.25 mL/min, where eluent A was 0.2% aqueous TFA, pH 2, and eluent B was 0.2% TFA in acetonitrile.
Analytical RP-HPLC of Peptides—Peptides were analyzed on an Agilent 1100 series liquid chromatograph (Little Falls, Del.). Runs were performed on a Zorbax 300 SB-C8 column (150×2.1 mm I.D.; 5 μm particle size, 300 Å pore size) from Agilent Technologies using linear AB gradient (1% acetonitrile/min) and a flow rate of 0.25 ml/min, where solvent A was 0.05% aqueous TFA, pH 2 and solvent B was 0.05% TFA in acetonitrile. Temperature profiling analyses were performed in 3° C. increments, from 5° C. to 80° C.

A short description of data set [2]: Helical structure by circular dichroism spectroscopy. Type of data set: physicochemical. On the procedure: The mean residue molar ellipticities of peptides were determined by circular dichroism (CD) spectroscopy, using a Jasco J-810 spectropolarimeter (Easton, Md.) at 5° C. under benign (non-denaturing) conditions (50 mM NaH2PO4/Na2HPO4/100 mM KCl, pH 7.0), hereafter referred to as benign buffer, as well as in the presence of an α-helix inducing solvent, 2,2,2-trifluoroethanol, TFE, (50 mM NaH2PO4/Na2HPO4/[…], pH 7.0 buffer/50% TFE). A 10-fold dilution of an approximately […] stock solution of the peptide analogs was loaded into a 0.1 cm quartz cell and its ellipticity scanned from 195 to 250 nm. The values of molar ellipticities of the peptide analogs at a wavelength of 222 nm were used to estimate the relative α-helicity of the peptides.
(CD spectra are sensitive to the conformation of chiral molecules.)

Data set [3] can be described thus: CD temperature denaturation study. Type of data set: physicochemical. The note with it: 50% TFE. As to the method:
CD Temperature Denaturation Study of Peptide V681—The native peptide V681 was dissolved in 0.05% aqueous TFA containing 50% TFE, pH 2, loaded into a 0.02 cm fused silica cell and peptide ellipticity scanned from 190 to 250 nm at temperatures of 5, 15, 25, 35, 45, 55, 65 and 80° C. The spectra at different temperatures were used to mimic the alteration of peptide conformation during temperature profiling analysis in RP-HPLC. The ratio of the molar ellipticity at a particular temperature (t) relative to that at 5° C. ([θ]t−[θ]u)/([θ]5−[θ]u) was calculated and plotted against temperature in order to obtain the thermal melting profiles, where [θ]5 and [θ]u represent the molar ellipticity values for the fully folded and fully unfolded species, respectively. […] was determined in the presence of 8M urea with a value of 1500 deg·cm^2·dmol^−1 to represent a totally random coil state (31). The melting temperature (Tm) was calculated as the temperature at which the α-helix was 50% denatured (([θ]t−[θ]u)/([θ]5−θ[θ]u)=0.5) and the values were taken as a measure of α-helix stability.

The next data set deals with Gram-positive bacteria. The settings on record: gram-positive bacteria.

Turning to “Ac-KWKSFLKTFKSAVKTVLHTALKAISS-NH2 [V681, reference compound]”, the “change in hydrophobicity (RP-HPLC retention) relative to PVL” value in data set [1] is -0.35 min. For the same substance, the “[θ]222 in benign conditions” value in data set [2] (100 mM KCl, 50 mM aq. PO4, pH 7) is on record as −12,900. In addition, in data set [2] (50% TFE), the “[θ]222 in 50% TFE” value is reported as −27,300 and the α-helical content stood at 94%. Further, in data set [2] (benign conditions), the α-helical content was 45%. In data set [3], the “transition temperature Tm (50% of α-helical structure denatured)” value was found to be 79.3 °C. In addition, the “geometric mean MIC” value in the data set with Gram-positive bacteria was found to be 6.3 µg/mL.

The values are drawn from patent US20100099614A1, “Antimicrobial Peptides and Methods of Use” (priority 2008, published 2010).
